# Measured values from patent publication US8513203B2, “Composition and method thereof” (Indus Biotech Private Limited, priority 2011, dated 2013).
# Test system: FCA induced arthritis
# Assay: FCA induced arthritis, non-injected paw volume
# Assay type: in vivo, rat
# Conditions: 10 mg/kg
# Experimental: Anti-arthritis activity was studied by injecting Freund's complete adjuvant (FCA) in rat paw and measuring the edema formation and percentage inhibition of paw volume in the non-injected paw.
# Male wistar rats weighing between 190-250 g were injected with 0.1 ml of FCA into the sub planter region of left hind paw. 0.1 ml of FCA solution consist of 6 mg of Complete Fraction of Mycobacterium Butyrium (Difco) being Suspended in heavy Paraffin Oil (Merck). Local oedema was produced after few hrs. Treatment with the test compound was carried out from day 13 to day 21 after FCA injection. Volume of the non-injected hind paw was recorded using plethysmometer (UGO Basile 7140).
# The percentage inhibition of inflammation in the non-injected paw was measured as difference in the mean paw volume of the FCA control group to that of the treated animals.
smiles,measurement,setting,value
Cc1ccc(-c2cc(C(F)(F)F)nn2-c2ccc(S(N)(=O)=O)cc2)cc1 [Celecoxib],Percentage reduction of FCA induced arthritis,Day 18,58.97 ± 35.93 %
same,Percentage reduction of FCA induced arthritis,Day 21,81.24 ± 22.35 %
